{"source": "ChEMBL document CHEMBL6103620", "about": "“Gymnopeptides C and D, Highly N-Methylated Fungal Cyclopeptides” (J Nat Prod, 2025)", "key": {"A-375 [1]": {"tested_on": "A-375", "assay": "Antiproliferative activity against human A-375 cells assessed as reduction in cell viability incubated for 72 hrs by MTT assay", "assay_type": "functional, cell-based"}, "HaCaT": {"tested_on": "HaCaT", "assay": "Antiproliferative activity against human HaCaT cells assessed as reduction in cell viability incubated for 72 hrs by MTT assay", "assay_type": "functional, cell-based"}, "A-375 [2]": {"tested_on": "A-375", "assay": "Induction of apoptosis in human A-375 cells assessed as increase in caspase-3 activity at 50 nM incubated for 24 hrs", "assay_type": "functional, cell-based"}, "A-375 [3]": {"tested_on": "A-375", "assay": "Inhibition of cell migration in human A-375 cells assessed as reduction in cell numbers in wound area at 5 nM incubated for 72 hrs by methyl green staining based scratch assay", "assay_type": "functional"}, "A-375 [4]": {"tested_on": "A-375", "assay": "Inhibition of cell migration in human A-375 cells assessed as decrease in number of cell migration into lower compartment at 50 nM measured after 16 hrs", "assay_type": "functional, cell-based"}}, "note": "Calls of active or inactive are those of the source. The calls are words filed in the database; no cut-off is given here. Square brackets hold non-standard residues; d marks the D form. Peptide text beside a SMILES is read from it. ξ: configuration not given here. Thr(3ξ) = CC(O)[C@H](N)C(=O)O; NMeV = CN[C@H](C(=O)O)C(C)C; NMeA = CN[C@@H](C)C(=O)O; Sar = CNCC(=O)O", "data": [{"smiles": "CC(C)[C@@H]1NC(=O)[C@H](C(C)C)N(C)C(=O)[C@H](C)NC(=O)[C@H](C(C)C)N(C)C(=O)[C@H](C(C)C)NC(=O)[C@H](C(C)C)N(C)C(=O)[C@H](C(C)C)NC(=O)[C@H](C(C)C)N(C)C(=O)[C@H](CO)NC(=O)[C@H](C(C)C)N(C)C(=O)[C@H](C)NC(=O)[C@H](C(C)C)N(C)C(=O)[C@H](C)NC(=O)CN(C)C(=O)[C@H](C(C)C)NC(=O)[C@H](C)N(C)C(=O)[C@H](C(C)C)N(C)C(=O)CN(C)C1=O", "note": "(cyclo(A[NMeV]A[NMeV]S[NMeV]V[NMeV]V[NMeV]A[NMeV]V[Sar][NMeV][NMeA]V[Sar]))", "values": [{"measurement": "Activity", "setting": "A-375 [1]", "value": "Dose-dependent-effect"}, {"measurement": "Activity", "setting": "HaCaT", "value": "Dose-dependent-effect"}, {"measurement": "Activity", "setting": "A-375 [2]", "value": "Active; Significant Effect Was Not Observed"}, {"measurement": "inhibition", "setting": "A-375 [3]", "value": "Active; Significant Effect Observed"}, {"measurement": "inhibition", "setting": "A-375 [4]", "value": "Active"}]}, {"smiles": "CC(C)[C@@H]1NC(=O)[C@H](C(C)C)N(C)C(=O)[C@H](C)NC(=O)[C@H]([C@H](C)O)N(C)C(=O)[C@H](C(C)C)NC(=O)[C@@H]2CCCN2C(=O)[C@H](C(C)C)NC(=O)[C@H](C)N(C)C(=O)[C@H](C(C)C)N(C)C(=O)CN(C)C(=O)[C@H](C)NC(=O)[C@H](C(C)C)N(C)C(=O)[C@H](C)NC(=O)[C@H](C(C)C)N(C)C(=O)[C@H](C(C)C)NC(=O)[C@H](C(C)C)N(C)C(=O)[C@H](C(C)C)NC(=O)[C@H](C(C)C)N(C)C1=O", "values": [{"measurement": "Activity", "setting": "A-375 [1]", "value": "Dose-dependent-effect"}, {"measurement": "Activity", "setting": "HaCaT", "value": "Dose-dependent-effect"}, {"measurement": "Activity", "setting": "A-375 [2]", "value": "Active"}, {"measurement": "inhibition", "setting": "A-375 [3]", "value": "Active; Significant Effect Observed"}, {"measurement": "inhibition", "setting": "A-375 [4]", "value": "Active"}]}, {"smiles": "CC(C)[C@@H]1NC(=O)[C@H](C(C)C)N(C)C(=O)[C@H](C)NC(=O)[C@H](C(C)C)N(C)C(=O)[C@H](C(C)C)NC(=O)[C@H](C(C)C)N(C)C(=O)[C@H](C(C)C)NC(=O)[C@H](C(C)C)N(C)C(=O)[C@H](C(C)O)NC(=O)[C@H](C(C)C)N(C)C(=O)[C@H](C)NC(=O)[C@H](C(C)C)N(C)C(=O)[C@H](C)NC(=O)CN(C)C(=O)[C@H](C(C)C)NC(=O)[C@H](C)N(C)C(=O)[C@H](C(C)C)N(C)C(=O)CN(C)C1=O", "note": "(stereo not given in full) (cyclo(A[NMeV]A[NMeV][Thr(3ξ)][NMeV]V[NMeV]V[NMeV]A[NMeV]V[Sar][NMeV][NMeA]V[Sar]))", "values": [{"measurement": "Activity", "setting": "A-375 [1]", "value": "Dose-dependent-effect"}, {"measurement": "Activity", "setting": "HaCaT", "value": "Dose-dependent-effect"}, {"measurement": "Activity", "setting": "A-375 [2]", "value": "Active"}, {"measurement": "inhibition", "setting": "A-375 [3]", "value": "Active; Significant Effect Observed"}, {"measurement": "inhibition", "setting": "A-375 [4]", "value": "Active"}]}, {"smiles": "CC(C)[C@@H]1NC(=O)[C@H](C(C)C)N(C)C(=O)[C@H]([C@@H](C)O)NC(=O)[C@H](C(C)C)N(C)C(=O)[C@H](C(C)C)NC(=O)[C@H](C(C)C)N(C)C(=O)[C@H](C(C)C)NC(=O)[C@H](C(C)C)N(C)C(=O)[C@H](C(C)C)NC(=O)[C@H](C(C)C)N(C)C(=O)[C@H](C)NC(=O)[C@@H]([C@@H](C)O)N(C)C(=O)[C@H](C(C)C)NC(=O)[C@@H]2CCCN2C(=O)[C@H](C)NC(=O)[C@H](C)N(C)C(=O)[C@H](C(C)C)N(C)C(=O)CN(C)C1=O", "values": [{"measurement": "Activity", "setting": "A-375 [1]", "value": "Dose-dependent-effect"}, {"measurement": "Activity", "setting": "HaCaT", "value": "Dose-dependent-effect"}, {"measurement": "Activity", "setting": "A-375 [2]", "value": "Active"}, {"measurement": "inhibition", "setting": "A-375 [3]", "value": "Active; Significant Effect Observed"}, {"measurement": "inhibition", "setting": "A-375 [4]", "value": "Active"}]}]}
